Where a name gives a salt, the structure may show the parent alone.
Legend:
male C57Bl/6 mice = assay: Acute in vivo food intake test in mice; settings: high caloric diet, 100 mg/kg/day oral gavage in two halves
Protocol: 3. Acute in vivo Food Intake Test in Mice
The studies were carried out in individually housed male C57Bl/6 mice (n=8 per group). The mice were kept on an inverted 12/12 h light/dark cycle (lights on 22:00). They were allowed food (high caloric diet) and water ad libitum. Food intake and water consumption was measured daily. The test compound of Formula I was suspended in 1% methylcellulose in water and 2% (v/v) of Poloxamer 188 (Lutrol F68®) and administered by oral gavage at a dose of 100 mg/kg/day.
In the test model described above, the test substances caused a decrease of the animals' 24 h food intake to the percentages of food intake when compared to control as given in table 3 below.

male fatty Zucker rats = assay: In vivo oral glucose tolerance test in the rat; settings: 100 mg/kg/day oral gavage
Protocol: 2. In vivo Oral Glucose Tolerance Test in the Rat
The studies were carried out in individually housed male fatty Zucker rats (n=10 per group) weighing ca. 250-500 g. The rats were kept on a normal 12/12 h light/dark cycle (lights on 07.00) and they were allowed food (lab chow) and water ad libitum except for during experiments, when they were fasted overnight before the glucose challenge.
The test substances of Formula I were suspended in 2% polyethylenglycol (=PEG) 1% carboxymethylcellulose and administered by oral gavage at a dose of 100 mg/kg/day; ⅓ of the dose (1 ml/kg, 33 mg/ml) was administered at 08.30-09.30 h; the remaining […] (2 ml/kg; 33 mg/ml) was administered between 16.00-17.00 h and the last ⅓ dose was given the following morning. Control animals received only the vehicle. On the day of the test, 45 min after the final dose of test substance/vehicle a blood sample (0 min) was taken (tail vein) immediately after which the rats received an oral glucose challenge (1.25 g/kg; 118 mg/ml). Further blood samples were taken at 30, 60, 90, 120 min after the glucose challenge. The second drop of blood of each sample was placed on a glucose test strip before this was placed in the glucose meter for determination of blood glucose level (Life Scan One Touch Ultra Blood® Glucose Meter and Life Scan One Touch Ultra® Test Strips; Life Scan Inc.; Milpitas, Calif. 95035). The remaining blood of each sample was spun and the plasma was frozen at −80° C. before analysis for insulin (1-2-3 Rat Insulin ELISA kit, Alpco Diagnostics).
The values obtained were plotted and the AUC for test compounds and vehicle (for glucose and insulin) were determined after which the percent control AUC, percent control maximum value and % control baseline were estimated, to determine the influence of the test compound on the glucose tolerance.

[1] = target: T1, human carbonic anhydrase isoenzyme II (hCA II) (Homo sapiens, UniProt P00918); assay: In vitro inhibition of human carbonic anhydrase isoenzyme II (hCA II), dansylamide fluorescence; type: biochemical; settings: hCA II from erythrocytes 10^-7 M, 60 min, single measurements, read-out: hCA II inhibiting effect in vitro, IC50
T1 construct: human carbonic anhydrase isoenzyme II from erythrocytes (Sigma-Aldrich); purchased Sigma-Aldrich; host or cells: human erythrocytes (natural source)
Protocol: 1. In vitro Inhibition of Human Carbonic Anhydrase Isoenzyme II (hCA II)
The test compounds of Formula I in 96 well microplates were diluted with aqua bidest by using an automatic pipettor (CyBiWell®). From the different dilution plates, aliquots of 20 μl were transferred to the 96 well black assay plates with a pipetting station (Tecan Genesis®). In a second step, 148 μl of potassium phosphate buffer (20 mM, pH 7.4) was added, and as a third step, 20 μl of enzyme solution (1 μM human carbonic anhydrase isoenzyme II from erythrocytes (Sigma-Aldrich), dissolved in potassium phosphate buffer) incubated for 60 min at room temperature and the fluorescence signal (Tecan Ultra® fluorescence reader; excitation wavelength: 280 nm; emission wavelength: 465 nm) read at the end of the preincubation period (FLU-1). After the preincubation time, 20 μl of aqueous dansylamide solution (1 mM dansylamide (Sigma-Aldrich), dissolved in hydrochloric acid) were added and the fluorescence signal read every 10 min for a period of 60 min at 37° C. For calculation, the fluorescence data of the time point 60 min (FLU-2) were used. The total volume of assay mixture amounted to 208 μl. The final concentration of carbonic anhydrase II was 10^−7 M/L, of dansylamide 2.25×10^−6 and of compounds from 10^−8 M/L up to 10^−5 M/L. Final concentration of DMSO as compound solvent was […]. Each microplate also contained blanks without compound and enzyme, controls without compound and ethoxzolamide (final concentration 5×10^−8 M/L). All data reflect single measurements. Data were expressed as % inhibition after calculation by the formula: % inhibition=100((1−(FLU−2cpd−FLU−2blank−FLU−1cpd+FLU−1blank)/(FLU−2control−FLU−2blank−FLU−1control−FLU−1blank))
The % inhibition data for each compound and the respective final concentrations were used for IC50 calculations by using the Prism 4 software. Concentration action figures were calculated by applying the Prism algorithm for nonlinear regression (curve-fit): sigmoidal dose response with variable slope and the constraints: top: 100 and bottom 0.

Compound: NS(=O)(=O)N1CCN(c2ccccc2)CC1 [Example 2, N-Sulfamoyl-N′-phenylpiperazine hydrochloride]
- 24 h food intake (male C57Bl/6 mice): 68 % of control
- Glucose Baseline (male fatty Zucker rats; 0 min sample before glucose challenge): 82 % of control
- Insulin Baseline (male fatty Zucker rats; 0 min sample before glucose challenge, plasma): 85 % of control
- Glucose Maximal effect (male fatty Zucker rats; oral glucose challenge 1.25 g/kg): 78 % of control
- Glucose AUC (male fatty Zucker rats; oral glucose challenge 1.25 g/kg, 0-120 min): 84 % of control
- Insulin AUC (male fatty Zucker rats; oral glucose challenge 1.25 g/kg, 0-120 min, plasma): 95 % of control
- Insulin Maximal effect (male fatty Zucker rats; oral glucose challenge 1.25 g/kg, plasma): 95 % of control
- IC50 [1]: 5.1 µM
